Source: patent publication US10613104B2, “Assay to determine anticoagulants in blood or blood plasma” (ZAFENA AB, priority 2014, dated 2020)

Columns and labels:
[1] = test system: prothrombin time (PT) of normal citrated blood; experiment: Three wet-chemistry Owren PT methods (Simple Simon PT) on normal citrated blood with added apixaban; assay type: biochemical
Description: Experimental work was performed with the commercially available ambient room temperature coagulation instrument, Simple Simon P T Zafena A B, Linköping, Sweden, with functions described in EP 1 636 595 B2. One instrument or reader was used for each PT-method. Alternatively, the same instrument could be used for all PT-methods.
The three instruments were used together standing next to one another on a laboratory bench in thermal equilibrium with the ambient room temperature of the laboratory.
The PT-reagent was the one delivered together with lot N223M of the Simple Simon PT product, a reagent of Owren-type that thus contains effective amounts of thromboplastin, fibrinogen and FV (the thromboplastin of rabbit brain origin and the fibrinogen and the FV of bovine blood plasma origin). Other Owren type reagents could also be used.
The reagent was in portions of 200 μL to which sample, citrated blood or citrated blood plasma, was added and mixed. The addition was by an end-to-end plastic capillary mounted at one end of a tubular body with a displacement mechanism in the other end, this to allow convenient mixing of sample and reagent. Such Mixxocaps with 10 μL capillaries are supplied with the Simple Simon PT product. To perform the experiments described, some Mixxocaps were fitted with 20 μL capillaries, or 5 μL capillaries instead of the 10 μL capillaries with which they were supplied by the manufacturer.
These blood samples and a blood sample with an INR 2.3 were analyzed by Simple Simon PT using sample volumes of 20 μL, 10 μL and 5 μL in 200 μL reagents. […]

[2] = test system: prothrombin time (PT) of control plasma NKP; experiment: 20 μL and 5 μL PT methods with reagent P161 at various added CaCl2, NKP + 500 μg/L apixaban; assay type: biochemical
Description: With each reagent three samples were analyzed by the two PT methods of the anticoagulant assay, the 20 μL-method and the 5 μL-method. Two of the samples were reference samples, the control plasmas NKP and ZAP, with established INR values of 1.00 and 2.50, respectively.

[3] = apixaban 63 μg/L in normal citrated blood
[4] = apixaban 125 μg/L in normal citrated blood
[5] = apixaban 250 μg/L in normal citrated blood
[6] = apixaban 500 μg/L in normal citrated blood
[7] = apixaban 714 μg/L in normal citrated blood
[8] = apixaban 1000 μg/L in normal citrated blood

Q: Which results are given for `COc1ccc(-n2nc(C(N)=O)c3c2C(=O)N(c2ccc(N4CCCCC4=O)cc2)CC3)cc1` [apixaban]?
A: INR 10 μL sample [1, 3]: 1.19; INR 20 μL sample [1, 3]: 1.41; INRc 5 μL sample [1, 3]: 1.06; INRc 10 μL sample [1, 3]: 1.12; INRc 20 μL sample [1, 3]: 1.21; INRo [1, 3]: 0.96; ΔINRc 10 μL − 5 μL [1, 3]: 0.06; ΔINRc 20 μL − 5 μL [1, 3]: 0.15; INR 10 μL sample [1, 4]: 1.32; INR 20 μL sample [1, 4]: 1.75; INRc 5 μL sample [1, 4]: 1.16; INRc 10 μL sample [1, 4]: 1.26; INRc 20 μL sample [1, 4]: 1.49; INRo [1, 4]: 1.02; ΔINRc 10 μL − 5 μL [1, 4]: 0.10; ΔINRc 20 μL − 5 μL [1, 4]: 0.32; INR 5 μL sample [1, 5]: 1.32; INR 10 μL sample [1, 5]: 1.64; INR 20 μL sample [1, 5]: 2.61; INRc 5 μL sample [1, 5]: 1.39; INRc 10 μL sample [1, 5]: 1.60; INRc 20 μL sample [1, 5]: 2.18; INRo [1, 5]: 1.07; ΔINRc 10 μL − 5 μL [1, 5]: 0.21; ΔINRc 20 μL − 5 μL [1, 5]: 0.79; INR 5 μL sample [1, 6]: 1.66; INR 10 μL sample [1, 6]: 2.27; INR 20 μL sample [1, 6]: 4.58; INRc 5 μL sample [1, 6]: 1.81; INRc 10 μL sample [1, 6]: 2.29; INRc 20 μL sample [1, 6]: 3.73; INRo [1, 6]: 1.09; ΔINRc 10 μL − 5 μL [1, 6]: 0.48; ΔINRc 20 μL − 5 μL [1, 6]: 1.92; INR 5 μL sample [1, 7]: 1.87; INR 10 μL sample [1, 7]: 2.78; INR 20 μL sample [1, 7]: 6.06; INRc 5 μL sample [1, 7]: 2.08; INRc 10 μL sample [1, 7]: 2.86; INRc 20 μL sample [1, 7]: 4.88; INRo [1, 7]: 0.91; ΔINRc 10 μL − 5 μL [1, 7]: 0.78; ΔINRc 20 μL − 5 μL [1, 7]: 2.80; INR 10 μL sample [1, 8]: 3.50; INR 20 μL sample [1, 8]: 8.76; INRc 5 μL sample [1, 8]: 2.51; INRc 10 μL sample [1, 8]: 3.69; INRc 20 μL sample [1, 8]: 6.94; INRo [1, 8]: 0.74; ΔINRc 10 μL − 5 μL [1, 8]: 1.16; ΔINRc 20 μL − 5 μL [1, 8]: 4.43; 5 uL-method NKP + 500 INR5c ([2]; reagent P161, added Ca2+ 4 mM): 1.18; 20 uL-method NKP + 500 INR20c ([2]; reagent P161, added Ca2+ 4 mM): 1.83; 20 uL-method NKP + 500 INR20c ([2]; reagent P161, added Ca2+ 8 mM): 2.15; 20 uL-method NKP + 500 INR20c ([2]; reagent P161, added Ca2+ 16 mM): 3.15; 20 uL-method NKP + 500 INR20c ([2]; reagent P161, added Ca2+ 24 mM): 3.30; 5 uL-method NKP + 500 INR5c ([2]; reagent P161, added Ca2+ 32 mM): 1.49; 20 uL-method NKP + 500 INR20c ([2]; reagent P161, added Ca2+ 32 mM): 3.38
